Measurements as given in patent US20240109937A1, “BINDING PEPTIDES AND USES THEREOF” (The Johns Hopkins University, priority 2021, published 2024).

Assays:
CAPN1 = biological target: T1, CAPN1 (Mus musculus, UniProt O35350); assay: Western blot of CAPN1 in purified mitochondria from HL-1 cells under Ca2+ overload; format: cell-based; details: Ca2+ overload (HBS KVC), calpeptin 50 μM, PD150606 10 μM
T1 construct: endogenous in cells; host or cells: HL-1 cardiomyocytes
T1 sequence (O35350 1-713): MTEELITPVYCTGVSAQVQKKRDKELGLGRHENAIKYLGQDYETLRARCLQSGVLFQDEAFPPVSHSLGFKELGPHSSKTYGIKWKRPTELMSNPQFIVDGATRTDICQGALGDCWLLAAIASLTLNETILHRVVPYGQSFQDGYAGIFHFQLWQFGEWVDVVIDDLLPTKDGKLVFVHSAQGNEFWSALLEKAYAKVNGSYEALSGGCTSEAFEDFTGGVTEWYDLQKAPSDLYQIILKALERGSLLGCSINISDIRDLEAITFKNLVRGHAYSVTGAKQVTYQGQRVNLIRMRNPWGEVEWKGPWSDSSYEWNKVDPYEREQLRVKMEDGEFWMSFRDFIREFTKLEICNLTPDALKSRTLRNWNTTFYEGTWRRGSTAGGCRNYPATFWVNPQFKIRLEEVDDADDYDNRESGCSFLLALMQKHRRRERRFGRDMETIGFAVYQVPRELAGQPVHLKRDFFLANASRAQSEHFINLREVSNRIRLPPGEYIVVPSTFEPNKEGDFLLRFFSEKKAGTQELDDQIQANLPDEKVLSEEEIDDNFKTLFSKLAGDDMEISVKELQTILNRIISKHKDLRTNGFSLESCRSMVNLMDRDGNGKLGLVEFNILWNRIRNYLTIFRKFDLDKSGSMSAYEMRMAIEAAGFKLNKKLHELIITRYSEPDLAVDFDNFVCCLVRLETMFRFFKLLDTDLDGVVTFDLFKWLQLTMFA
T1 sequence (O88456 1-268 partner): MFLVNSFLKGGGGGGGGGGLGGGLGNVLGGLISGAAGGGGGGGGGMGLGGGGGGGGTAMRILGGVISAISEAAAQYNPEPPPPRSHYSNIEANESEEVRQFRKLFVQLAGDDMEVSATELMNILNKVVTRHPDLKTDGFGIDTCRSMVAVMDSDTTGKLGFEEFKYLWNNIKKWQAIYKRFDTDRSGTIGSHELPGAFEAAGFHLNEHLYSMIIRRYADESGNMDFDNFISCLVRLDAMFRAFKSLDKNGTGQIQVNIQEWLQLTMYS
Procedure: (§1) Calcium (Ca^2+) Overload Protocol: Rapid and sustained intracellular Ca^2+ overload was obtained by adding the Ca^2+-ionophore, calcimycin (1 μM), to HL-1 cells incubated for 10 min in HBS KV medium (1.26 mM CaCl2, 0.81 mM MgSO4, 0.44 mM KH2PO4, 142 mM KCl, 0.27 mM K2HPO4, 5.55 mM D-glucose, 1 mM Na3VO4, 20 mM Hepes pH 7.4). To monitor intracellular Ca^2+ variations, HL-1 cells were loaded with 5 μM Fluo-4 FF AM (Molecular Probes) in HBS Na (Sigma) for 30 min before the media was replaced with HBS KV. The fluorescence was recorded using a fluorimeter plate reader (Fluoroskan Ascent Labsystem) at wavelength settings of 485/530 nm for excitation/emission, respectively.
Mitochondria Isolation Protocol: Mitochondria were isolated from HL-1 cells in percoll density gradient. Briefly, 30×10^6 adherent cells were harvested with Trypsin/EDTA, centrifuged at 500×g for 10 min, washed in buffer A (100 mM sucrose, 1 mM EGTA, 20 mM MOPS, pH 7.4, and 1 mg/mL BSA) before cell disruption with a Dounce homogenizer. The suspension was centrifuged twice at 500× g for 5 min and the resulting supernatant at 10,000×g for 10 min at 4° C. The pellet was re-suspended in buffer B (300 mM sucrose, 1 mM EGTA, 20 mM MOPS pH 7.4, 1 mg/mL BSA), and the homogenate was layered on a two-phase (25% and 40%) percoll density gradient. […]

HL-1 cells [1] = assay: Mitochondrial membrane potential (JC-1) assay in HL-1 cells; format: cell-based, mouse; details: Calcimycin 1 μM in HBS KV medium
Procedure: Calcium (Ca^2+) Overload Protocol: Rapid and sustained intracellular Ca^2+ overload was obtained by adding the Ca^2+-ionophore, calcimycin (1 μM), to HL-1 cells incubated for 10 min in HBS KV medium (1.26 mM CaCl2, 0.81 mM MgSO4, 0.44 mM KH2PO4, 142 mM KCl, 0.27 mM K2HPO4, 5.55 mM D-glucose, 1 mM Na3VO4, 20 mM Hepes pH 7.4). To monitor intracellular Ca^2+ variations, HL-1 cells were loaded with 5 μM Fluo-4 FF AM (Molecular Probes) in HBS Na (Sigma) for 30 min before the media was replaced with HBS KV. […] Mitochondrial Membrane Potential (MMP) Assay: MMP was determined using the potentiometric probe, JC-1. JC-1 (Molecular Probes) is a cationic carbocyanine dye that selectively accumulates in polarized mitochondria, where it forms red fluorescent aggregates (excitation 485/emission 590 nm). Upon mitochondrial depolarization, JC-1 is released into the cytosol, whereas a monomer emits green fluorescence (excitation 485 nm/emission 520 nm). Therefore, MMP variations were monitored as the ratio of fluorescent emissions at 590/520 nm using a fluorimeter plate reader (Fluoroskan Ascent Labsystem). HL-1 cells were incubated with JC-1 (1.5 μM) for 30 min at 37° C. in HBS Na before treatment protocols.

HL-1 cells [2] = assay: Intracellular Ca2+ (Fluo4 FF fluorescence) in HL-1 cells; format: cell-based, mouse; details: Calcimycin 1 μM in HBS KV medium
Procedure: as §1, with “KV.” for “KV. The fluorescence was recorded using a fluorimeter plate reader (Fluoroskan Ascent Labsystem) at wavelength settings of 485/530 nm for excitation/emission, respectively.”

`CCCC[C@@H](C=O)NC(=O)[C@H](CC(C)C)NC(=O)OCc1ccccc1` [calpeptin] was tested, and the “mitochondrial CAPN1 translocation” value (CAPN1) was “failed to prevent”, the “Ca2+ overload-induced decrease in mitochondrial membrane potential (MMP)” value (HL-1 cells [1]) was “significantly attenuated” and the “kinetics of cytosolic Ca2+ accumulation” value (HL-1 cells [2]) was “neither of them had an impact”.
